Assay results: patent US20240182460A1, “ALLOSTERIC CHROMENONE INHIBITORS OF PHOSPHOINOSITIDE 3-KINASE (PI3K) FOR THE TREATMENT OF DISEASE” (PETRA PHARMA CORPORATION, priority 2022, published 2024)

Key:
PI3Kα E545K [1] = target: T1, PI3Kα E545K (Homo sapiens, UniProt P42336, E545K); test: PI3Kα E545K mutant in vitro cell based assay, MCF-7 cells; details: MCF-7 cell line, 0% FBS, 3 hours treatment
Description: PI3K-Alpha Kinase (PI3Kα) Activity: Wild-Type PI3Kα, H1047R Mutant PI3Kα, and E545K Mutant PI3Kα In Vitro Cell Based Assays and Determination of IC50 Values for Inhibitors
The MDA-MB-453 (ATCC-HTB-131) cell line (PI3Kα H1047R) and MCF-7 (ATCC-HTB-22) cell line (PI3Kα E545K), MDA-MB-361 (ATCC-HTB-27) cell line (PI3Kα E545K), and SKBR3 (ATCC-HTB-30) cell line (wild type PI3Kα) were obtained from the American Type Culture Collection (Manassas, VA). MDA-MB-453 cells were maintained in Dulbecco's Modified Eagle Media (DMEM, Gibco 12430) supplemented with 10% Fetal Bovine Serum, heat inactivated (FBS HI, Gibco 10082), 1× non-essential amino acids (NEAA, Gibco 11140), 1 mM sodium pyruvate (Gibco 11360) and 1× Anti-Anti (Gibco 15240). MCF-7 cells were maintained in Minimum Essential Media (MEM) (Gibco 11095) supplemented with 10% Fetal Bovine Serum, heat inactivated (FBS HI, Gibco 10082), 1× non-essential amino acids (NEAA, Gibco 11140), 1 mM sodium pyruvate (Gibco 11360), 1× Anti-Anti (Gibco 15240) and 10 μg/mL human insulin (Sigma I 9278). MDA-MB-361 cells were maintained in Dulbecco's Modified Eagle Media (DMEM, Gibco 12430) supplemented with 20% Fetal Bovine Serum, heat inactivated (FBS HI, Gibco 10082), 1× non-essential amino acids (NEAA, Gibco 11140), 1 mM sodium pyruvate (Gibco 11360) and 1× Anti-Anti (Gibco 15240). SKBR3 cells were maintained in McCoy's 5A (Gibco 16600) supplemented with 10% Fetal Bovine Serum, heat inactivated (FBS HI, Gibco 10082), and 1× Anti-Anti (Gibco 15240). Cultures were maintained in a humidified incubator at 37° C. under 5% CO2/95% air.
For compound testing in 0% FBS, MDA-MB-453, MCF-7 and SKBR3 cells were seeded at a density of 1.5×10^4, 1.0×10^4, and 1.0×10^4 cells, respectively, per well in white 384-well plates in 20 μl of Minimum Essential Media (MEM) assay media with 1×NEAA, 1 mM sodium pyruvate, and 1 μg/mL human insulin (Sigma 19278) (Assay Medium); while MDA-MB-361 cells were seeded at a density of 1.5×10^4 per well in white 384-well plates in 20 μl Assay Medium without insulin. After plating, cells were allowed to attach overnight. Compounds dissolved in 10 mM stock solutions in DMSO were serially diluted 1:3 in DMSO to generate a 10-point dilution series and plated using an acoustic liquid handler system (Echo 550 Series Liquid Handler, Labcyte). A 5× intermediate compound dilution plate in MEM with 1×NEAA and 1 mM sodium pyruvate (150 μM starting compound concentration in 1.5% DMSO) was then prepared. Five μl of the intermediate serially diluted compounds were added to the cell plate to final concentrations ranging from […] in 0.3% DMSO. 0.3% DMSO alone was used to establish the maximum (MAX) signal and GDC-0032 at a final concentration of 1 μM was used as a reference compound for the minimum (MIN) signal. After 3 hours treatment, the medium was removed, and the cells were lysed in 10 μL of 1× SureFire Lysis buffer with shaking for 10 minutes at room temperature. The Acceptor Mix (Reaction Buffer 1+Reaction Buffer 2+Activation Buffer+SureFire Ultra Acceptor Beads) was prepared by diluting Activation buffer 25-fold in combined Reaction Buffer 1 and Reaction Buffer 2.
The Acceptor beads were diluted 50-fold in the combined Reaction Buffers. Five μL of Acceptor Mix was added to each well, the plate was sealed and covered with foil and incubated for 1 hour at room temperature. The Donor Mix (dilution buffer+SureFire Ultra Donor Beads) was prepared by diluting Donor Beads 50-fold in dilution buffer. Five μL of the Donor Mix was added to each well and the plate sealed and covered with foil and incubated for 1-2 hours at room temperature in the dark. The plates were read on a Neo2 plate reader instrument from Biotek using standard AlphaLisa settings.
Compounds were tested in duplicate and the % inhibition at each compound concentration was used to generate two dose response curves. One IC50 was generated using average % inhibition at each compound concentration. […]

[2] = Metabolic stability and intrinsic clearance in human liver microsomes (MICS); type: in vitro ADME; details: human, microsomes, pH 7.4
Outline: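 Test compound (1 μM final) incubated at 37° C with liver microsomes (0.5 mg/mL protein) in 100 mM phosphate buffer pH 7.4, with 1 mM NADPH or without cofactor; sampled at 0.5–60 min, quenched with cold acetonitrile. Parent remaining quantified by LC-MS/MS; t1/2 from ln-% remaining slope converted to CLint (μL/min/mg protein).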

PI3Kα E545K [3] = target: T1, PI3Kα E545K; test: PI3Kα E545K mutant in vitro cell based assay, MDA-MB-361 cells; parameters: MDA-MB-361 (ATCC-HTB-27) cell line (PI3Kα E545K); host or cells: MDA-MB-361; details: MDA-MB-361 cell line, 0% FBS, no insulin, 3 hours treatment
Outline: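 MDA-MB-361 cells (PI3Kα E545K) seeded in serum-free MEM assay medium without insulin, attached overnight, then treated 3 h with compound (10-point 1:3 series, 0.3% DMSO). AlphaLISA SureFire readout of lysates. IC50 by 4-parameter fit, normalized to DMSO (max) and 1 μM GDC-0032 (min).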

T1 sequence (P42336 whole entry E545K): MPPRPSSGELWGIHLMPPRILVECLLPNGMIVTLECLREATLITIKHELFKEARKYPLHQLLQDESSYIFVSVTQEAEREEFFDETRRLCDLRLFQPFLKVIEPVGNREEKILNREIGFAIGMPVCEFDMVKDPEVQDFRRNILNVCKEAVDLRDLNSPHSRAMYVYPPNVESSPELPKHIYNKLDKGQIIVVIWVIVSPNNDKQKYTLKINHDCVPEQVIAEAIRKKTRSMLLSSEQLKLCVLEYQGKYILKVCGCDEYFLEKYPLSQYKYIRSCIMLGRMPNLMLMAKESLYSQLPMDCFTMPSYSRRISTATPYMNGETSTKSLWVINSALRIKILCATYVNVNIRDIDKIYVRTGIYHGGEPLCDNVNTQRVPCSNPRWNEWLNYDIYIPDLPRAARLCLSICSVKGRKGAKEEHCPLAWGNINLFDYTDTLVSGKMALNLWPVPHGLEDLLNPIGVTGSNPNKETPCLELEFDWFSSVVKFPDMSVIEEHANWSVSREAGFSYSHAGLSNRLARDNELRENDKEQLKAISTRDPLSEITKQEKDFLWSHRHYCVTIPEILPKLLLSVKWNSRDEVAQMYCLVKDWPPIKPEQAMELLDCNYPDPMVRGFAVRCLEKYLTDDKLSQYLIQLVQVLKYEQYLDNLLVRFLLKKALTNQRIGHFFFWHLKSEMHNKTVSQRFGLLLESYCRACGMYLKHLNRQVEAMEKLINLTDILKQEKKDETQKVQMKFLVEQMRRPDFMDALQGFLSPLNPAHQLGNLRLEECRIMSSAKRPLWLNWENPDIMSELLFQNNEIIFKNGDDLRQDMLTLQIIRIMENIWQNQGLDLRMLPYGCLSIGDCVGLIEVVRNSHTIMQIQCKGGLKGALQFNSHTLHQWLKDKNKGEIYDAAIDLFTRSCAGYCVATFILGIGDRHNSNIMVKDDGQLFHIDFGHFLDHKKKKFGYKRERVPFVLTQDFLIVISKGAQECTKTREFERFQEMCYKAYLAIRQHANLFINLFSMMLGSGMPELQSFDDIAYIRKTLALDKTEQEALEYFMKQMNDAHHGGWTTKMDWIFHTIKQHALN
T1 sequence (P27986 whole entry partner): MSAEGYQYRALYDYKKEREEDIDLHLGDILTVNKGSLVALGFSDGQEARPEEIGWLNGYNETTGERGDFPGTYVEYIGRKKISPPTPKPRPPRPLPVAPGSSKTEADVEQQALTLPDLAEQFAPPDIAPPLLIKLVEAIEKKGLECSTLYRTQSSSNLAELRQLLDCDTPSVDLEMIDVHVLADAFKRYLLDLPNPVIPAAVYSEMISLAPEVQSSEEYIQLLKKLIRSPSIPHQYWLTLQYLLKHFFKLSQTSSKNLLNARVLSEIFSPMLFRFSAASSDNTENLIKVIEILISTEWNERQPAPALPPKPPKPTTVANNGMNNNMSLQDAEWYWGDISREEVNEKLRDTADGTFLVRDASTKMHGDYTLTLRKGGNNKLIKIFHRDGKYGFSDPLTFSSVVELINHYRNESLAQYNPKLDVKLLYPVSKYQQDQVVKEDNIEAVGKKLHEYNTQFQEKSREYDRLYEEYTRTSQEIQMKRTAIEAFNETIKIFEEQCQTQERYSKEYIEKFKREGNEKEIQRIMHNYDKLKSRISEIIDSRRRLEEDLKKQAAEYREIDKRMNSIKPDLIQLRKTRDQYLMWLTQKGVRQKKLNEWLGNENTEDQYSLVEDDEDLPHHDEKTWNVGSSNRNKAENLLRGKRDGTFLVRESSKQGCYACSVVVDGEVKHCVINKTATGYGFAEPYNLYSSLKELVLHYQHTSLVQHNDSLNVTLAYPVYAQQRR

Structure (SMILES) | IC50 (PI3Kα E545K [1]) | microsomal CLint at 1 μM [2] | IC50 (PI3Kα E545K [3])
Cc1cc([C@@H](C)Oc2ccc(Cl)nc2C(N)=O)c2oc(-c3cncc(F)c3)c(C)c(=O)c2c1 [Example 20A, 6-Chloro-3-[(1R)-1-[2-(5-fluoro-3-pyridyl)-3,6-dimethyl-4-oxo-chromen-8-yl]ethoxy]pyridine-2-carboxamide] | < 500 nM | < 50 µL/min/mg | 
Cc1cc([C@@H](C)Oc2ccc(Cl)nc2S(N)(=O)=O)c2oc(-c3ccc4nn(C)cc4c3)c(C)c(=O)c2c1 [Example 16A, 6-Chloro-3-[(1R)-1-[3,6-dimethyl-2-(2-methylindazol-5-yl)-4-oxo-chromen-8-yl]ethoxy]pyridine-2-sulfonamide] | < 500 nM |  | < 500 nM
Cc1cc([C@@H](C)Oc2ccc(Cl)nc2S(N)(=O)=O)c2oc(-c3ccc4nc(C)cn4n3)c(C)c(=O)c2c1 [Example 19C, 6-Chloro-3-[(1R)-1-[3,6-dimethyl-2-(2-methylimidazo[1,2-b]pyridazin-6-yl)-4-oxo-chromen-8-yl]ethoxy]pyridine-2-sulfonamide] | < 500 nM | < 50 µL/min/mg | 
CONC(=O)c1ncccc1O[C@H](C)c1cc(C)cc2c(=O)c(C)c(-c3ccc4nn(C)cc4c3)oc12 [Example 23A, 3-[(1R)-1-[3,6-Dimethyl-2-(2-methylindazol-5-yl)-4-oxo-chromen-8-yl]ethoxy]-N-methoxy-pyridine-2-carboxamide] | < 500 nM | < 50 µL/min/mg | 
Cc1cc([C@@H](C)Oc2ccc(F)c(F)c2C(N)=O)c2oc(-c3ccc4nn(C)cc4c3)c(C)c(=O)c2c1 [Example 17A, 6-[(1R)-1-[3,6-Dimethyl-2-(2-methylindazol-5-yl)-4-oxo-chromen-8-yl]ethoxy]-2,3-difluoro-benzamide] | < 500 nM |  | < 500 nM
Cc1cc([C@@H](C)Oc2ccc(F)cc2S(N)(=O)=O)c2oc(C3CC3)c(C)c(=O)c2c1 [Example 107C, 2-[(1R)-1-(2-Cyclopropyl-3,6-dimethyl-4-oxo-chromen-8-yl)ethoxy]-5-fluoro-benzenesulfonamide] | < 500 nM |  | < 500 nM
COCCn1cc(-c2oc3c([C@@H](C)Oc4ccc(Cl)nc4S(N)(=O)=O)cc(C)cc3c(=O)c2C)cn1 [Example 117C, 6-Chloro-3-[(1R)-1-[2-[1-(2-methoxyethyl)pyrazol-4-yl]-3,6-dimethyl-4-oxo-chromen-8-yl]ethoxy]pyridine-2-sulfonamide] | < 500 nM |  | < 500 nM

Results, then the compound that gave them:

IC50 (PI3Kα E545K [1]) | microsomal CLint at 1 μM [2] | IC50 (PI3Kα E545K [3]) | Structure (SMILES)
< 500 nM | < 50 µL/min/mg |  | Cc1cc([C@@H](C)Oc2ccc(Cl)nc2C(N)=O)c2oc(-c3ccc4nn(C)cc4n3)c(C)c(=O)c2c1 [Example 141A, 6-Chloro-3-[(1R)-1-[3,6-dimethyl-2-(2-methylpyrazolo[4,3-b]pyridin-5-yl)-4-oxo-chromen-8-yl]ethoxy]pyridine-2-carboxamide]
< 500 nM |  | < 500 nM | Cc1cc([C@@H](C)Oc2ccc(Cl)nc2S(N)(=O)=O)c2oc(C3CC3CO)c(C)c(=O)c2c1 (single isomer, unassigned) [Example 126C]
< 500 nM |  | < 500 nM | Cc1cc([C@@H](C)Oc2ccc(Cl)nc2C(N)=O)c2oc(-c3ccc4c(c3)OCC(=O)N4C)c(C)c(=O)c2c1 [Example 119A, 6-Chloro-3-[(1R)-1-[3,6-dimethyl-2-(4-methyl-3-oxo-1,4-benzoxazin-7-yl)-4-oxo-chromen-8-yl]ethoxy]pyridine-2-carboxamide]
< 500 nM |  | < 500 nM | Cc1cc([C@@H](C)Oc2ccc(Cl)nc2C(N)=O)c2oc(-c3ccc4nn([C@H]5C[C@@H](O)C5)cc4c3)c(C)c(=O)c2c1 [Example 133C, 6-Chloro-3-[(1R)-1-[2-[2-(3-hydroxycyclobutyl)indazol-5-yl]-3,6-dimethyl-4-oxo-chromen-8-yl]ethoxy]pyridine-2-carboxamide]
< 500 nM |  | < 500 nM | Cc1cc([C@@H](C)Oc2ccc(Cl)nc2C(N)=O)c2oc(-c3ccc4nn(CC5(O)CC5)cc4c3)c(C)c(=O)c2c1 [Example 130C, 6-Chloro-3-[(1R)-1-[2-[2-[(1-hydroxycyclopropyl)methyl]indazol-5-yl]-3,6-dimethyl-4-oxo-chromen-8-yl]ethoxy]pyridine-2-carboxamide]
